Patent US11236122B2, “Triterpene amine derivatives” (DFH THERAPEUTICS, priority 2018, dated 2022)
Where a name gives a salt, the structure may show the parent alone.

Experiments:
[1] = system: HIV-1 clade C K3016 in HUT-R5 cells; assay: Antiviral assay in HUT-R5 cells (p24), K3016; format: cell-based; settings: Human immunodeficiency virus 1, 192 h, 8 days, mean ± SEM, 2 experiments
Experimental: Antiviral assays. HUT-R5 cells were infected with normalized HIV-1 clade C K3016 virus stocks at 37° C. for 1 h. Cells were then maintained for 8 days in the presence of serial dilutions of the compounds assayed. After 8 days, the HIV-1 p24 concentration in the virus supernatants was measured to monitor virus replication. The 50% inhibitory concentrations (IC50s) were determined that reduced HIV-1 p24 levels to 50% relative to DMSO-only controls.

HIV-1 clade C pindieC1 = assay: CA-SP1 accumulation assay (immunoblot), clade C pindieC1; format: cell-based; settings: head prints K3016
Experimental: (§1) Compound evaluation was performed against a panel of HIV-1 Clade C isolates K3016, pindieC1, and ZM247. The three isolates all contain the SP1-A7V. Clade B NL4-3 was included as the […] control.
(§2) Plasmids, tissue culture and transfections. HIV-1 clade B molecular clone NL4-3 and cade C clones K3016, ZM247 were obtained from Dr. Christina Ochsenbauer, University of Alabama, USA. Both K3016 and ZM247 were constructed using viral strains from South Africa. The HIV-1 clade C molecular clone pindieC1 was obtained from Dr. Uday Ranga, JNCASR, India. This clone was constructed using an HIV strain from India. HEK-293T and TZM-bl cells were propagated in Dulbecco's modified Eagle's medium (DM4EM) containing 10% fetal bovine serum (FBS). HUT-R5 cells were propagated in RPM 1640 medium supplemented with 10% FBS. For transfections, HEK-293T cells were grown in six well plates to about 80% confluency. Cells were transfected using Lipofectamine 2000 (invitrogen, USA) following manufacturer's recommendations. For viral replication assays, HUT-R5 T-cells were transfected using DEAE dextran as described in Waheed, A. A., Ono, A., and Freed, E. O.; Methods for the study of HIV-1 assembly; Methods Mol. Biol. Clifton N.J. 485, 163-184 (2009).
(§3) Preparation of viral stocks. Virus stocks were prepared by transfecting HEK-293T cells with HIV-1 DNAs (3 μg). 24 h post-transfection, the culture medium was replaced with fresh DMEM and incubated for another 2 h. Compounds tested were maintained in the culture throughout transfection. The culture supernatant was centrifuged at 845×g for 3 min to remove cellular debris. The clarified supernatants were filtered (pore size 0.45 µm filter disc) to remove residual cellular contaminants. For determination of viral infectivity, the un-concentrated virus was used to infect TZM-bl cells. For the CA-SP1 accumulation assay, the virus was pelleted by ultra-centrifugation at 210,100×g for 1 h at 4° C. using SW41Ti rotor (Beckman Coulter, USA).
(§4) CA-SP1 accumulation assay. To measure accumulation of CA-SP1, immunoblot analysis of virus-associated proteins was performed. The virus pellet was resuspended in radioimmunoprecipitation assay (RIPA) buffer (50 mM Tris-HCl pH 8.0, 150 mM sodium chloride, 1.0% NP-40, 0.5% sodium deoxycholate, 0.1% SDS) containing 1×protease inhibitor cocktail (Roche, Germany). The viral lysates were subjected to SDS-polyacrylamide gel electrophoresis (15% gel). Proteins were transferred to polyvinylidene difluoride membranes and reacted with HIV-IgG obtained from the NIH AIDS Reagent Program (catalog no. 3957) followed by incubation with HRP-conjugated anti-human secondary antibodies (GE Healthcare, UK). The proteins were visualized by enhanced chemiluminescence (Pierce, USA) and the bands were quantified using ImageJ software (http://imagej.nih.gov/ij/).

pNL4-3 SP1-V7A = assay: CA-SP1 accumulation assay, SP1-V7A derivative; format: cell-based, HIV-1; settings: HeLa or 293T cells; for % CA-SP1 Accumulation 10 nM SP1 V7A: 10 nM compound
Method in brief: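 HeLa or 293T cells transfected with proviral clone, maturation inhibitors present through transfection and labeling; at 24 h, [^35S]Met/Cys labeling 2-3 h. Virions pelleted by ultracentrifugation, lysed, CA and CA-SP1 resolved by SDS-PAGE and quantified by phosphorimaging.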

HIV-1 clade C K3016 = assay: CA-SP1 accumulation assay (immunoblot), clade C K3016; format: cell-based
Experimental: as §1, §2, §3, §4

Compound	IC50 [1]	% CA-SP1 Accumulation K3016 10 nM (HIV-1 clade C pindieC1)	% CA-SP1 Accumulation K3016 100 nM (HIV-1 clade C pindieC1)	% CA-SP1 Accumulation 10 nM SP1 V7A (pNL4-3 SP1-V7A)	% CA-SP1 Accumulation K3016 10 nM (HIV-1 clade C K3016)	% CA-SP1 Accumulation K3016 100 nM (HIV-1 clade C K3016)	% CA-SP1 Accumulation 100 nM SP1 V7A (pNL4-3 SP1-V7A; 100 nM compound)
C=C(C)[C@@H]1CC[C@]2(CCNCCN3CCS(=O)(=O)CC3)CC[C@]3(C)[C@H](CC[C@@H]4[C@@]5(C)CC[C@H](OC(=O)CC(C)(C)C(=O)O)C(C)(C)[C@@H]5CC[C@]43C)[C@@H]12 [Compound 51ee, (3β)-17-[[[2-[2-(1,1-Dioxothiomorpholin-4-yl)]Ethyl]Amino]Ethyl]-28-norlup-20(29)-en-3-ol, 3-(1-Hydrogen 2,2-Dimethylbutanedioate)]	3.6 ± 0.22 nM	41.8%	48.3%	35.1%	53.8%	66.4%	
C=C(C)[C@@H]1CC[C@]2(CCNC3CCN(CCO)CC3)CC[C@]3(C)[C@H](CC[C@@H]4[C@@]5(C)CC[C@H](OC(=O)CC(C)(C)CC(=O)O)C(C)(C)[C@@H]5CC[C@]43C)[C@@H]12 [Compound 51f, (3β)-17-[2-[[1-(2-Hydroxyethyl)piperidin-4-yl]amino]ethyl]-28-norlup-20(29)-en-3-ol, 3-(Hydrogen 3,3-Dimethylpentanedioate), Bis(trifluoroacetate) Salt]							43.4 (3) %
C=C(C)[C@@H]1CC[C@]2(CCNCCN3CCN(S(C)(=O)=O)CC3)CC[C@]3(C)[C@H](CC[C@@H]4[C@@]5(C)CC[C@H](OC(=O)CC(C)(C)C(=O)O)C(C)(C)[C@@H]5CC[C@]43C)[C@@H]12 [Compound 51ff, (3β)-17-[2-[[2-[4-(Methylsulfonyl)piperazin-1-yl]ethyl]amino]ethyl]-28-norlup-20(29)-en-3-ol, 3-(1-Hydrogen 2,2-Dimethylbutanedioate)]	2.27 ± 0.56 nM	36.7%	39.1%	31.1 (3) %	49.8%	54.4%	
C=C(C)[C@@H]1CC[C@]2(CCNCCN3CCN(Cc4ccccc4)CC3)CC[C@]3(C)[C@H](CC[C@@H]4[C@@]5(C)CC[C@H](OC(=O)CC(C)(C)C(=O)O)C(C)(C)[C@@H]5CC[C@]43C)[C@@H]12 [Compound 51hh, (3β)-17-[2-[[2-[4-(Phenylmethyl)piperazin-1-yl]ethyl]amino]ethyl]-28-norlup-20(29)-en-3-ol, 3-(1-Hydrogen 2,2-Dimethylbutanedioate)]	3.89 ± 0.18 nM	26.7%	43.8%	42.1 (5) %	35.8%	62.9%	
